Experimental data: paper PMC6680637, “In Silico Repositioning of Cannabigerol as a Novel Inhibitor of the Enoyl Acyl Carrier Protein (ACP) Reductase (InhA)” (Molecules, 2019)

Biological target: T1, Enoyl acyl carrier protein (ACP) reductase (InhA) (Mycobacterium tuberculosis, UniProt P9WGR1)
T1 construct: wild type InhA
Experiment: enzyme kinetic assay, NADH oxidation at […] nm with trans-2-dodecenoyl-CoA substrate
Type: biochemical

T1 sequence (P9WGR1 whole entry, looked up): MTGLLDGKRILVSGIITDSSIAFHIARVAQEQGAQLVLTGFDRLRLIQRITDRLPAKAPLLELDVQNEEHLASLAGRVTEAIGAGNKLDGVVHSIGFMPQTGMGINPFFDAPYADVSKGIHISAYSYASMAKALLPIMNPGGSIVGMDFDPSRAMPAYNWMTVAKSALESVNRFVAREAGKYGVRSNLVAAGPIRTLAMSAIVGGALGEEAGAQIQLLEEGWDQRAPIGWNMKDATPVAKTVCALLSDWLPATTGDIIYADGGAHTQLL

Work on `CCCCCc1cc(O)c(C/C=C(\C)CCC=C(C)C)c(O)c1` [CBG, Cannabigerol] yielded an IC50 of 5.2 ± 0.1 µM.
